Data set [1] relates to A549 (lung carcinoma). Put plainly: cells. The class given is cell-based, human.
Data set [2] has as its system MCF-7 (breast adenocarcinoma). In words: cells. The note with it: read-out: Cancer cell line IC50, MCF-7. The class given is cell-based, human.
In data set [3] the test system is HL-60 (promyelocytic leukemia). Put plainly: cells. The note with it: read-out: Cancer cell line IC50, HL-60. The class given is cell-based, human.
The subject of data set [4] is BEAS-2B normal cell line (human bronchial epithelial cell). The following applies: for IC50: read-out: Cancer cell line IC50, BEAS-2B.
The test system of data set [5] is SMMC-7721 (hepatocarcinoma). Put plainly: cells. The class given is cell-based, human. The following applies: read-out: Cancer cell line IC50, SMMC-7721.
Data set [6] concerns SW-480 (colon adenocarcinoma). In words: cells. The class given is cell-based, human. The note with it: read-out: Cancer cell line IC50, SW480.
In data set [7] the test system is HL-60, SMMC-7721, A549, MCF-7 and SW-480 human cancer cell lines. Put plainly: cells. The class given is cell-based. The note with it: read-out: IC50 values across the five cancer cell lines.
Data set [8] deals with BEAS-2B normal cell line (human bronchial epithelial cell). Put plainly: cells. The note with it: read-out: Cancer cell line IC50, BEAS-2B.
The mark [9] stands for this setting: read-out: Cancer cell line IC50, A549.
[10] abbreviates: Homo sapiens, A549, 48 h, read-out: Cancer cell line IC50, A549.
Setting [11] is: Homo sapiens, A549, read-out: Cancer cell line IC50, A549.

Values joined by “and” are separate entries in the source; they are usually repeats but may differ in a detail not shown here. Equal entries are not always repeated. Where two headings read alike, the source gives them in different places.

Regarding `N.N.[Cl][Pt][Cl]` [Cisplatin, cisplatin, reference compound], the half-inhibitory concentration (IC50) in data set [1] (setting [9]) is 6.43 µM and 9.72 µM; in data set [2], 13.3 µM; in data set [3] it was 1.91 µM; in data set [4], 9.53 µM; in data set [5], 5.81 µM; in data set [6], 12 µM.
For the compound `C/C=C\C(=O)O[C@@H]1C[C@H]2O[C@@]34C=C(C)C(=O)C[C@]3(C)[C@]1(C)[C@]2(CO)O4` [Compound 1, engleromycone A], the IC50 in data set [1] (setting [10]) is 19.1 µM; in data set [1] (setting [11]), 18.9 µM; in data set [2] (Homo sapiens, MCF7, 48 h) it was 18 µM; in data set [3] (Homo sapiens, HL-60, 48 h) it was 14.3 µM; in data set [7] (Homo sapiens, 48 h), 14.3 to 20.2 µM; in data set [5] (Homo sapiens, SMMC-7721, 48 h), 19.1 µM. The IC50 was 19.4 µM in data set [8] and 20.2 µM in data set [6] (Homo sapiens, SW480, 48 h). Moreover, the “selective cytotoxicity against the A549 cell line” value (shortened to “selective cytotoxicity”) in data set [4] was “did not exhibit selective cytotoxicity”.
`C=C1[C@H]2C[C@@H](OC(=O)/C=C\C)[C@]1(C)[C@@]1(C)CC(=O)C(C)=C[C@H]1O2` [Compound 2, engleromycone B]: the 50% inhibitory concentration (IC50) is 2.98 µM in data set [1] (setting [10]); 5.82 µM in data set [1] (setting [11]); 21.1 µM in data set [2] (Homo sapiens, MCF7, 48 h); 2.7 µM in data set [3] (Homo sapiens, HL-60, 48 h); 2.7 to 21.1 µM in data set [7] (Homo sapiens, 48 h); 8.41 µM in data set [5] (Homo sapiens, SMMC-7721, 48 h). In addition, the IC50 in data set [8] was 9.87 µM; in data set [6] (Homo sapiens, SW480, 48 h), 9.25 µM. In data set [4], the “selective cytotoxicity” value is given as “did not exhibit selective cytotoxicity”.
As to `CC1=C[C@]23O[C@@H]4[C@@H](O)C[C@](C)([C@@]2(C)CC1)[C@]4(CO)O3` [Compound 3, sambucinol], the IC50 was > 40 µM in data set [1] (setting [10]); > 40 µM in data set [2] (Homo sapiens, MCF7, 48 h); > 40 µM in data set [3] (Homo sapiens, HL-60, 48 h); > 40 µM in data set [7] (Homo sapiens, 48 h); > 40 µM in data set [5] (Homo sapiens, SMMC-7721, 48 h); > 40 µM in data set [6] (Homo sapiens, SW480, 48 h).
Consider `CC(=O)O[C@H]1C(=O)[C@@]2(C)[C@H]([C@H](OC(=O)c3ccccc3)[C@]3(O)C[C@H](OC(=O)[C@H](O)[C@@H](NC(=O)c4ccccc4)c4ccccc4)C(C)=C1C3(C)C)[C@]1(OC(C)=O)CO[C@@H]1C[C@@H]2O` [Taxol, paclitaxel, reference compound], for which the IC50 in data set [1] (setting [10]) is < 0.008 µM; in data set [1] (setting [11]) it was < 0.008 µM; in data set [2] (Homo sapiens, MCF7, 48 h), < 0.008 µM; in data set [3] (Homo sapiens, HL-60, 48 h) it was < 0.008 µM; in data set [5] (Homo sapiens, SMMC-7721, 48 h), < 0.008 µM; in data set [8] it was < 0.98 µM. Also, the IC50 in data set [6] (Homo sapiens, SW480, 48 h) is < 0.008 µM.
Regarding `C/C=C\C(=O)O[C@@H]1[C@@H](O)[C@H]2O[C@@H]3C=C(C)C(=O)C[C@]3(C)[C@]1(C)[C@]21CO1` [Compound 10, trichothecinol A], the IC50 in data set [1] (setting [9]) is 0.015 µM and 0.016 µM; in data set [2], 0.006 µM; in data set [3] it was 0.022 µM; in data set [7], < 3.5 µM; in data set [4], 0.025 µM; in data set [5], 0.02 µM. The IC50 in data set [6] was determined as 0.011 µM. For the same compound, the “selective cytotoxicity” value in data set [4] was “did not exhibit selective cytotoxicity”.
`C/C=C\C(=O)O[C@@H]1C[C@H]2O[C@@H]3C=C(C)C(=O)C[C@]3(C)[C@]1(C)[C@]21CO1` [Compound 8, trichothecin]: the IC50 in data set [1] (setting [9]) was 0.2 µM and 0.22 µM; in data set [2], 0.21 µM; in data set [3], 0.14 µM; in data set [7], < 3.5 µM; in data set [4], 0.27 µM; in data set [5], 0.22 µM. Besides, the IC50 in data set [6] amounted to 0.18 µM. The “selective cytotoxicity” value in data set [4] was “did not exhibit selective cytotoxicity”.
In the case of `CC1=C[C@]23O[C@@H]4CC[C@](C)([C@@]2(C)CC1)[C@]4(CO)O3` [Compound 4, 3-deoxysambucinol], the IC50 was > 40 µM in data set [1] (setting [10]); > 40 µM in data set [2] (Homo sapiens, MCF7, 48 h); > 40 µM in data set [3] (Homo sapiens, HL-60, 48 h); > 40 µM in data set [7] (Homo sapiens, 48 h); > 40 µM in data set [5] (Homo sapiens, SMMC-7721, 48 h); > 40 µM in data set [6] (Homo sapiens, SW480, 48 h).
Consider `CC1=C[C@H]2O[C@@H]3C[C@@H](O)[C@](C)([C@@]2(C)CC1=O)[C@]31CO1` [Compound 5, trichothecolone], for which the IC50 in data set [1] (setting [9]) was 4.16 µM and 5.71 µM; in data set [2] it was 16.5 µM; in data set [3] it was 4.86 µM; in data set [4], 4.18 µM; in data set [5] it was 6.92 µM; in data set [6] it was 8.52 µM. For the same compound, the “selective cytotoxicity” value in data set [4] is recorded as “did not exhibit selective cytotoxicity”.
